# Reference: patent US20260285853A1, “COMPOUNDS AND METHODS FOR MODULATING SPLICING” (REMIX THERAPEUTICS INC., priority 2023, published 2026)
# Experiments:
# Assay type in all cases: cell-based
# [1] = system: HTT mRNA; test: Splicing RT-qPCR assay (THP), Table 2A; conditions: Table 2A, THP; for AC50: HTT alternative junction (AJ) mRNA, read-out: HTT AJ (AC50, increase in alternative junction mRNA); for IC50: HTT canonical junction (CJ) mRNA, read-out: HTT CJ (IC50, decrease in canonical junction mRNA)
# [2] = system: MYB mRNA; test: Splicing RT-qPCR assay (THP), Table 2A; conditions: Table 2A, THP; for AC50: MYB alternative junction (AJ) mRNA, read-out: MYB AJ (AC50, increase in alternative junction mRNA); for IC50: MYB canonical junction (CJ) mRNA, read-out: MYB CJ (IC50, decrease in canonical junction mRNA)
# [3] = system: MYB mRNA; test: Gene panel canonical junction qPCR assay, decrease in CJ mRNA, Table 3; conditions: decrease in CJ mRNA levels, canonical junction qPCR, gene panel
# Procedure, shortened: (§1)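 IC50 is the concentration giving 50% response in decrease of the canonical junction transcript, fitted with a 4-parameter logistic equation. Transcripts were quantified by RT-qPCR in A673 or K562 cells after 24 h exposure to compounds dosed up to 10 uM in 3-fold steps.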
# [4] = system: HTT mRNA; test: as above; conditions: decrease in CJ mRNA levels, canonical junction qPCR, gene panel
# Procedure, shortened: as §1
# [5] = system: SMN2 mRNA; test: as above; conditions: decrease in CJ mRNA levels, canonical junction qPCR, gene panel
# Procedure, shortened: as §1
# [6] = system: SH-SY5Y (human neuroblastoma) cells; test: Cell viability, Cell Titer Glo 2.0 assay; conditions: read-out: Viability SHSY5Y.3 GI50
# Procedure, shortened: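 Steps: serial DMSO dilution of compound, 1:100 dilution into medium, addition to cells (0.1% DMSO final). Incubate 72 h at 37 °C, 5% CO2. Assay with CellTiter-Glo 2.0 reagent.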
Compound,AC50 [1] [nM],IC50 [1] [nM],AC50 [2] [nM],IC50 [2] [nM],IC50 [3] [nM],IC50 [4] [nM],IC50 [5] [nM],GI50 [6] [nM]
"COc1c(NC(=O)c2ncc(N3CCNCC3)c3cn[nH]c23)cn2cc(C)nc2c1F [Compound 606, N-(8-fluoro-7-methoxy-2-methyl-imidazo[1,2-a]pyridin-6-yl)-4-piperazin-1-yl-1H-pyrazolo[3,4-c]pyridine-7-carboxamide]",> 10000,> 10000,1000 to 10000,1000 to 10000,> 10000,> 10000,100 to 1000,100 to 1000
"COc1c(NC(=O)c2c(F)cc(N3CCNCC3)c3cn[nH]c23)cn2cc(C)nc2c1F [Compound 607, 6-fluoro-N-(8-fluoro-7-methoxy-2-methyl-imidazo[1,2-a]pyridin-6-yl)-4-piperazin-1-yl-1H-indazole-7-carboxamide]",1000 to 10000,100 to 1000,< 100,< 100,< 100,100 to 1000,< 100,100 to 1000
Cc1cn2cc(NC(=O)c3ccc(N4C[C@@H](C)N[C@@H](C)C4)c4c3nnn4C)cc(F)c2n1 [Compound 635],1000 to 10000,1000 to 10000,100 to 1000,100 to 1000,100 to 1000,1000 to 10000,< 100,1000 to 10000
